This passage reports IC50 results from patent publication US9340577B2, “HLA binding motifs and peptides and their uses” (priority 1992, dated 2016).

Assay in all cases: biochemical
For assay [1], the target named is DRB1*1302 (Homo sapiens, UniProt P01903+P01911, A100E/A169T/K41T/L162R/M171V/P40S/Q125H/Q178H/Q39Y/Q99D/R42S/S66N/T262R/V115G/W38E/Y61H). It counts as binding.
In assay [2] the target is DRB3*0101 (Homo sapiens, UniProt P01903+P79483). Type of assay: binding.
In assay [3] the target is DRB1*0802 (Homo sapiens, UniProt P01903+P01911, A100R/A103L/A169T/F76Y/H45Y/I96F/K41T/L162R/M171V/P40S/Q125H/Q178H/Q39Y/Q99D/R218S/R42G/S66Y/V115G/W38E). It counts as binding.
Assay [4] concerns the target DR7 (DRB1*0701) (Homo sapiens, UniProt P01903+P01911, A100R/A102G/A103Q/D57E/D86V/E43K/F76Y/K127E/L162R/M171V/P40G/Q125H/Q99D/R33Q/R42Y/R54Q/S133A/S66F/T210M/V115G/Y107V/Y59L/Y89S). Type of assay: binding.
The target in assay [5] is DRB1*1501 (Homo sapiens, UniProt P01903+P01911). It counts as binding.
The target in assay [6] is DRB1*1101 (Homo sapiens, UniProt P01903+P01911, A100R/A169T/A87E/I96F/K41T/L162R/M171V/P40S/Q125H/Q178H/Q39Y/Q99D/R42S/S66Y/T262R/V115G/W38E). Conditions: Binding affinity DRB1 *1101.
In assay [7] the target is DRB1*1201 (Homo sapiens, UniProt P01903+P01911, A100R/A169T/D57E/D86V/F55L/H45Y/K41T/L162R/M171V/P40S/Q125H/Q178H/Q39Y/Q99D/R42G/S66L/T262R/V114A/V67L/W38E/Y59H/Y61H/Y89S). Type of assay: binding.
Assay [8] has as its target DRB5*0101 (Homo sapiens, UniProt P01903+Q30154). The note with it: Binding affinity DRB5 *0101.
Assay [9] deals with DR1 (DRB1*0101) (Homo sapiens, UniProt P01903+P01911, A100R/D57E/F55L/F60I/F76Y/I96L/L162R/M171V/P40L/Q125E/R42F/V115G/Y59C). Type of assay: binding.
For assay [10], the target named is DRB1*0901 (Homo sapiens, UniProt P01903+P01911, A100R/A103E/D57H/D86V/F55Y/F60I/F76Y/I96F/K127E/L162R/M171V/P40D/Q125H/Q99R/R33Q/R42F/S133A/S66N/T210M/V115G/W38K/Y107V/Y59G/Y89S). It counts as binding.
Assay [11] deals with DR4w4 (DRB1*0401) (Homo sapiens, UniProt P01903+P01911, A100K/A169T/F76Y/I96L/K127E/L162R/M171V/N62H/P40V/Q125Y/R42H/S133A/S149N/S66Y/V115G/V209L/W38E). It counts as binding.

By IC50 is commonly meant the midpoint of a concentration-inhibition curve. Read a high IC50 as weaker potency.

No end group written: not given here. A value given as a limit tells only on which side of the number the result lay.

Sequence of DRB1*1101 (P01903 26-254 limits assumed, other chains not shown): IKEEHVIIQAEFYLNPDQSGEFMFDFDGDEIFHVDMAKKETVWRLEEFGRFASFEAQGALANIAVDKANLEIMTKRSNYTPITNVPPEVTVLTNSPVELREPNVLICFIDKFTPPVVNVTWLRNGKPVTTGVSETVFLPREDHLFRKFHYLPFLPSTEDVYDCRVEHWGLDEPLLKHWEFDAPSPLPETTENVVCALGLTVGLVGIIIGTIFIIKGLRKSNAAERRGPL
Sequence of DRB1*1302 (P01903 26-254 limits assumed, other chains not shown): as above

As for `CC(C)C[C@H](NC(=O)[C@H](CCC(N)=O)NC(=O)[C@H](C)NC(=O)[C@H](CC(N)=O)NC(=O)[C@H](CCCCN)NC(=O)[C@@H](NC(=O)[C@H](CCCCN)NC(=O)[C@H](CC(N)=O)NC(=O)CN)C(C)C)C(=O)N[C@@H](C)C(=O)NCC(=O)N[C@@H](C)C(=O)N[C@@H](CCCCN)C(=O)NCC(=O)N[C@H](C(=O)O)C(C)C` [Peptide 68.0097], the IC50 in assay [1], in [2], in assay [3], in [4], in assay [5] and in assay [6] was above 20 µM each time. Moreover, in [7], the IC50 is above 20 µM.
For GNEIFNTSLFEPPPP [Peptide 68.0090], the IC50 in [2], in assay [3], in assay [8], in [4], in assay [5] and in assay [6] was above 20 µM in each case. In addition, the IC50 in [9] and in assay [7] was above 20 µM throughout.
In the case of `CC[C@H](C)[C@H](NC(=O)[C@@H]1CCCN1C(=O)[C@H](CC(=O)O)NC(=O)[C@@H](NC(=O)[C@@H]1CCCN1C(=O)[C@H](Cc1ccccc1)NC(=O)[C@@H](NC(=O)[C@H](CC(=O)O)NC(=O)[C@@H](NC(=O)[C@@H]1CCCN1C(=O)[C@H](CO)NC(=O)[C@@H](N)CCCNC(=N)N)[C@@H](C)CC)[C@@H](C)O)[C@@H](C)O)C(=O)N[C@@H](CCCCN)C(=O)N[C@@H](CCC(=O)O)C(=O)N[C@@H](CO)C(=O)O` [Peptide 68.0026], the IC50 in assay [1], in assay [2], in [3], in [8], in [4] and in [6] was above 20 µM in each case. Further, the IC50 in assay [9] and in assay [7] was above 20 µM in each case.
As for PHPLYNMSLLKHQSL [Peptide 68.0007], the IC50 was above 20 µM in [2], above 20 µM in [4] and 0.86 µM in assay [7].
As to `CC[C@H](C)[C@H](NC(=O)[C@@H]1CCCN1C(=O)[C@H](Cc1c[nH]cn1)NC(=O)[C@@H](NC(=O)[C@@H]1CCCN1C(=O)[C@@H](NC(=O)[C@H](CO)NC(=O)[C@@H]1CCCN1C(=O)[C@H](CC(C)C)NC(=O)CNC(=O)[C@@H](NC(=O)[C@H](C)NC(=O)[C@H](CCC(=O)O)NC(=O)[C@H](C)N)C(C)C)[C@@H](C)CC)C(C)C)C(=O)NCC(=O)O` [Peptide 68.0101], the IC50 was above 20 µM in [2]; above 20 µM in [3]; above 20 µM in assay [8]; above 20 µM in [10]; above 20 µM in assay [6]; 0.7 µM in [7].
For the compound `CSCC[C@H](NC(=O)CNC(=O)[C@H](CC(C)C)NC(=O)[C@H](CCC(N)=O)NC(=O)[C@@H](NC(=O)[C@H](CC(C)C)NC(=O)[C@H](CCC(N)=O)NC(=O)CNC(=O)[C@@H](N)Cc1ccccc1)[C@@H](C)O)C(=O)N[C@@H](CCC(=O)O)C(=O)N[C@@H](CCC(N)=O)C(=O)N[C@@H](Cc1c[nH]cn1)C(=O)N[C@@H](Cc1ccc(O)cc1)C(=O)N[C@@H](CCC(=O)O)C(=O)N[C@@H](CC(C)C)C(=O)O` [Peptide 68.0028], the IC50 in [1], in [2], in assay [3], in assay [4], in assay [5] and in assay [10] was above 20 µM each time. The IC50 in assay [6] was above 20 µM; in assay [7] it was 0.653 µM.
With PEEFLRPRSLQCVSL [Peptide 68.0015], the IC50 in assay [2] is above 20 µM; in assay [8] it was above 20 µM; in [7] it was 6.02 µM; in [11] it was above 20 µM.
For VILLGRHSLFHPEDT [Peptide 68.0068], the results for the IC50 in assay [2], in [4] and in assay [7] were above 20 µM, above 20 µM and 0.056 µM, respectively.
As to `CC[C@H](C)[C@H](N)C(=O)N[C@@H](Cc1ccc(O)cc1)C(=O)N[C@@H](CO)C(=O)N[C@H](C(=O)N[C@@H](CO)C(=O)N[C@@H](CCSC)C(=O)N[C@@H](CCCCN)C(=O)N[C@@H](Cc1c[nH]cn1)C(=O)N1CCC[C@H]1C(=O)N[C@@H](CCC(N)=O)C(=O)N[C@@H](CCC(=O)O)C(=O)N[C@@H](CCSC)C(=O)N[C@@H](CCCCN)C(=O)N[C@H](C(=O)N[C@@H](Cc1ccc(O)cc1)C(=O)O)[C@@H](C)O)[C@@H](C)CC` [Peptide 68.0126], the IC50 in [1] was above 20 µM; in [2] it was above 20 µM; in assay [7], 11.4 µM.
Consider GRAVCGGVLVHPQWV [Peptide 68.0062], for which the IC50 in assay [2] was above 20 µM; in assay [3] it was above 20 µM; in assay [6], above 20 µM; in assay [7], 16.4 µM; in assay [11], above 20 µM.
With DFEVFFQRLGIASGR [Peptide 68.0114], the values for the IC50 in assay [2], in [4] and in assay [7] were above 20 µM, above 20 µM and 2 µM, respectively.
On to `CC[C@H](C)[C@H](NC(=O)[C@@H](N)CCC(=O)O)C(=O)N[C@H](C(=O)N[C@@H](CC(C)C)C(=O)N[C@@H](Cc1c[nH]cn1)C(=O)N[C@@H](CC(C)C)C(=O)N[C@@H](CCC(=O)O)C(=O)N1CCC[C@H]1C(=O)N[C@@H](CCC(N)=O)C(=O)N[C@@H](CC(N)=O)C(=O)N[C@@H](CCC(=O)O)C(=O)N[C@@H](CC(C)C)C(=O)N[C@@H](CC(=O)O)C(=O)N1CCC[C@H]1C(=O)N[C@H](C(=O)O)C(C)C)C(C)C` [Peptide 1543.20], for which the IC50 in assay [2], in assay [3], in [8], in assay [5], in assay [10] and in [6] was above 20 µM each time. Further, in [7], the IC50 was above 20 µM.
For the compound TNKFSGYPLYHSVYE [Peptide 68.0116], the half-maximal inhibitory concentration (IC50) in assay [1] is above 20 µM; in assay [2], above 20 µM; in assay [4] it was above 20 µM; in assay [6], above 20 µM; in assay [7], 4.48 µM.
For the compound `CC[C@H](C)[C@H](NC(=O)[C@@H](NC(=O)[C@H](Cc1c[nH]cn1)NC(=O)[C@@H](N)CCCNC(=N)N)C(C)C)C(=O)N[C@@H](Cc1ccc(O)cc1)C(=O)N[C@@H](C)C(=O)N1CCC[C@H]1C(=O)N[C@@H](CO)C(=O)N[C@@H](CO)C(=O)N[C@@H](Cc1c[nH]cn1)C(=O)N[C@@H](CC(N)=O)C(=O)N[C@@H](CCCCN)C(=O)N[C@@H](Cc1ccc(O)cc1)C(=O)N[C@@H](C)C(=O)NCC(=O)O` [Peptide 68.0133], the IC50 in assay [2] is above 20 µM; in assay [4], above 20 µM; in assay [7], 7.08 µM.
On to `CC[C@H](C)[C@H](NC(=O)[C@H](CO)NC(=O)[C@H](CC(C)C)NC(=O)[C@@H](NC(=O)[C@H](CC(C)C)NC(=O)[C@@H](N)CC(=O)O)C(C)C)C(=O)N[C@@H](C)C(=O)N[C@@H](CC(C)C)C(=O)N[C@@H](CO)C(=O)N[C@H](C(=O)NCC(=O)N[C@@H](CS)C(=O)N[C@H](C(=O)NCC(=O)N[C@@H](C)C(=O)O)[C@@H](C)O)C(C)C` [Peptide 68.0002], for which the IC50 was above 20 µM in assay [2]; above 20 µM in assay [3]; above 20 µM in assay [8]; above 20 µM in assay [6]; 4.92 µM in assay [7].
On to YDPLYCESVHNFTLP [Peptide 68.0041], for which the IC50 in assay [1], in assay [2], in [3], in [8], in [6] and in assay [7] was above 20 µM each time.
